We go through four molecules from US9732068B1, “System for crystalizing chemical compounds and methodologies for utilizing the same” (GenSyn Technologies, Inc., priority 2013, dated 2017).

A short description of the data set: Particle size measurement of crystallized compound with Horiba L950 particle size analyzer. Conditions: for Span: Span=(D90-D10)/D50; for median particle size: final solution after crystallization in system 10. The format is physicochemical. The text has this:
Just as importantly as desirable small particle sizes is uniformity of particle size distributions (i.e., described by “D values”). D values of “D10”, “D50” and “D90” may be used to represent the midpoint and range of particle sizes of a given sample. The D10 particle size is the diameter at which 10% of a sample's mass is comprised of smaller particles. The D50 is the “mass median diameter” as it divides the sample equally by mass. The D90 particle size is the diameter at which 90% of a sample's mass is comprised of smaller particles.
System 10 of the present invention enables the production of customized particles within a narrow range of particle sizes. A common value used to express the uniformity of particle size distribution is the “span”. The span is a measure of how wide of a spectrum of particle sizes is produced. A system with a low relative span is desirable as it will produce more uniform distribution of particle sizes. Span can be calculated with the equation below: Span=(D90−D10)/D50.
Two grams of Paracetomol was dissolved in 100 grams of ethanol. Two grams of Soy Lecithin was dissolved in 50 grams of tetrahydrofuran (THF). The two solutions were combined and heated to 60° C. The solution was added to the input hopper of a dual piston pump 241. The pump 241 was fed into fluid input conduit 121 of the crystallization chamber 22 through a 0.006″ opening 701 of a nozzle 581. Heptane, at 10° C. was fed into fluid input conduits 122, 123 and 124 through 0.006″, 0.008″ and 0.008″ openings 702, 703, and 704 of nozzles 582, 583, and 584 respectively by an identical piston pump 242. The pressure on both pumps 241 and 242 was adjusted to 1000 psi. The mixed streams exited through fluid output conduit 32 and into fluid reservoir 34 containing approximately 100 ml of heptane. Approximately, the first third and last third of the mixture were discarded and only the central third collected in fluid reservoir 34. The final solution was sampled and the particle size was measured, in heptane, using a Horiba L950 particle size analyzer. The median particle size was about 1.3 microns. The Span was about 0.901.
Two grams of Carbamazepine was dissolved in 100 grams of ethanol. Two grams of Soy Lecithin was dissolved in 50 grams of THF. The two solutions were combined and heated to 60° C. The solution was added to the input hopper of a dual piston pump 241. The pump 241 was fed into fluid input conduit 121 of the crystallization chamber 22 through a 0.004″ opening 701 of a nozzle 581. Heptane, at 10° C. was fed into fluid input conduits 122, 123 and 124 through 0.006″, 0.007″ and 0.007″ openings 702, 703, and 704 of nozzles 582, 583, and 584 respectively by an identical piston pump 242. The pressure on both pumps 241 and 242 was adjusted to 1500 psi. The mixed streams exited through fluid output conduit 32 and into fluid reservoir 34 containing approximately 100 ml of heptane. Approximately, the first third and last third of the mixture were discarded and only the central third collected in fluid reservoir 34. The final solution was sampled and the particle size was measured, in heptane, using a Horiba L950 particle size analyzer. The median particle size was about 1.5 microns. The Span was about 0.916.
Two grams of Ketoprofen was dissolved in 100 grams of DMSO. Two grams of Sorbitan Monostearate was dissolved in 50 grams of THF. The two solutions were combined and heated to 60° C. The solution was added to the input hopper of a dual piston pump 241. The pump 241 was fed into fluid input conduits 121 of the crystallization chamber 22 through a 0.004″ opening 701 of a nozzle 581. DI water with 0.1% Polysorbate 20, at 5° C. was fed into fluid input conduits 122, 123 and 124 through 0.006″, 0.008″ and 0.008″ openings 702, 703, and 704 of nozzles 582, 583, and 584 respectively by an identical piston pump 242. The pressure on both pumps 241 and 242 was adjusted to 1500 psi. […]

In the case of `CC(=O)Nc1ccc(O)cc1` [Paracetomol, N-(4-hydroxyphenyl)ethanamide], under “measured in heptane”, the Span result is “about 0.901” and the median particle size result is listed as “about 1.3 microns”.
`CC(C(=O)O)c1cccc(C(=O)c2ccccc2)c1` (racemic) [Ketoprofen, (RS)-2-(3-benzoylphenyl)propanoic acid]: for the setting “measured in DI water”, the Span result is reported as “about 1.078” and the median particle size entry was “about 3.1 microns”.
As for `NC(=O)N1c2ccccc2C=Cc2ccccc21` [Carbamazepine, 5H-dibenzo[b,f]azepine-5-carboxamide], where the note is “measured in heptane”, the Span entry was “about 0.916” and the median particle size entry was “about 1.5 microns”.
Turning to `CC(C)c1c(C(=O)Nc2ccccc2)c(-c2ccccc2)c(-c2ccc(F)cc2)n1CC[C@@H](O)C[C@@H](O)CC(=O)O` [Atorvastatin, (3R,5R)-7-[2-(4-fluorophenyl)-3-phenyl-4-(phenylcarbamoyl)-5-propan-2-ylpyrrol-1-yl]-3,5-dihydroxyheptanoic acid], for the setting “measured in DI water”, the Span result was “about 0.99” and the median particle size result is on record as “about 126 nanometers”.
